39 compounds from patent US6803378B2, “HIV integrase inhibitors” (Bristol-Myers Squibb Company, priority 2000, dated 2004) can be followed below.

The target of the assay is T1, HIV-1 integrase (Human immunodeficiency virus type 1 group M subtype B, UniProt P04585).
T1 construct: Purified recombinant HIV-1 integrase was incubated with immobilized precleaved substrate DNA
Description: In vitro activity against integrase, Method A (immobilized precleaved substrate DNA, biotinylated target DNA, 96 well plate). It counts as biochemical. As to conditions: Assay Method A, read-out: Percent inhibition of HIV Integrase at 70 uM. The protocol:
The in vitro activities, against integrase, of compounds of the present invention were measured by one of the following three methods.
In Method A, the in vitro activity against integrase was measured in a manner which was similar to previously disclosed methods (cf. Hazuda, D. J.; Felock, P.; Witmer, M.; Wolfe, A.; Stillmock, K.; Grobler, J. A.; Espeseth, A.; Gabryelski, L.; Schleif, W.; Blau, C.; Miller, M. D. Science, 2000, 287, 646) Purified recombinant HIV-1 integrase was incubated with immobilized precleaved substrate DNA in a 96 well plate for 20 min at 37° C. After the integration complex was formed, compounds at desired concentrations were added to the wells followed by a 10 min incubation at 37° C. Biotinyted Target DNA was then added and the reaction was carried out for an additional 1 hour at 37° C. Wells were then washed thoroughly to remove any free DNA and integration activity was measured by using a commercial kit to quantitate the amount of biotinyted target DNA integrated into the substrate.

With `CN(Cc1ccc(OCc2ccc(F)cc2)cc1)C(=O)/C=C(\O)C(=O)O` [Compound 1, 3-{[4-(4-Fluoro-benzyloxy)-benzyl]-methyl-carbamoyl}-2-hydroxy-acrylic acid], the inhibition at 70 µM came to 40%.

Take `CN(Cc1cccc(Cc2ccc(F)cc2)c1)C(=O)/C=C(\O)C(=O)O` [Compound 2, 3-{[3-(4-Fluoro-benzyl)-benzyl]-methyl-carbamoyl}-2-hydroxy-acrylic acid]: the inhibition at 70 µM came to 88%.

For `CN(Cc1cccc(OCc2ccc(F)cc2)c1)C(=O)/C=C(\O)C(=O)O` [Compound 3, 3-{[3-(4-Fluoro-benzyloxy)-benzyl]-methyl-carbamoyl}-2-hydroxy-acrylic acid], the inhibition at 70 µM worked out at 99%.

Turning to `CN(C(=O)/C=C(\O)C(=O)O)C(c1ccc(Cl)cc1)c1ccc(Cl)cc1` [Compound 4, 3-{[Bis-(4-chloro-phenyl)-methyl]-methyl-carbamoyl}-2-hydroxy-acrylic acid], the inhibition at 70 µM was 90%.

Take `CN(C(=O)/C=C(\O)C(=O)O)C(c1ccc(F)cc1)c1ccc(F)cc1` [Compound 5, 3-{[Bis-(4-fluoro-phenyl)-methyl]-methyl-carbamoyl}-2-hydroxy-acrylic acid]: the inhibition at 70 µM was determined as 65%.

For `COc1ccc(C(c2ccc(OC)cc2)N(C)C(=O)/C=C(\O)C(=O)O)cc1` [Compound 6, 3-{[Bis-(4-methoxy-phenyl)-methyl]-methyl-carbamoyl}-2-hydroxy-acrylic acid], the inhibition at 70 µM stood at 75%.

As for `CN(C(=O)/C=C(\O)C(=O)O)C(c1ccccc1)c1ccccc1` [Compound 7, 3-(Benzhydryl-methyl-carbamoyl)-2-hydroxy-acrylic acid], the inhibition at 70 µM amounted to 32%.

For the compound `CN(Cc1ccccc1Br)C(=O)/C=C(\O)C(=O)O` [Compound 12, 3-[(2-Bromo-benzyl)-methyl-carbamoyl]-2-hydroxy-acrylic acid], the inhibition at 70 µM stood at 85%.

Consider `O=C(O)/C(O)=C/C(=O)N(CCc1ccccc1)Cc1ccccc1` [Compound 13, 3-(Benzyl-phenethyl-carbamoyl)-2-hydroxy-acrylic acid], for which the inhibition at 70 µM came out at 94%.

For `CN(Cc1csc2ccc(Cl)cc12)C(=O)/C=C(\O)C(=O)O` [Compound 15, 3-[(5-Chloro-benzo[b]thiophen-3-ylmethyl)-methyl-carbamoyl]-2-hydroxy-acrylic acid], the inhibition at 70 µM came to 97%.

On to `CN(Cc1ccccc1)C(=O)/C=C(\O)C(=O)O` [Compound 17, 3-(Benzyl-methyl-carbamoyl)-2-hydroxy-acrylic acid], for which the inhibition at 70 µM was 89.5%.

On to `O=C(O)/C(O)=C/C(=O)N(CCc1ccc(F)cc1)Cc1ccccc1Cl` [Compound 18, 3-{(2-Chloro-benzyl)-[2-(4-fluoro-phenyl)-ethyl]-carbamoyl}-2-hydroxy-acrylic acid], for which the inhibition at 70 µM came to 89.5%.

On to `O=C(O)/C(O)=C/C(=O)N(Cc1ccc(F)cc1)Cc1ccccc1Cl` [Compound 19, 3-[(2-Chloro-benzyl)-(4-fluoro-benzyl)-carbamoyl]-2-hydroxy-acrylic acid], for which the inhibition at 70 µM is 96.5%.

Take `O=C(O)/C(O)=C/C(=O)N(CCc1ccc(F)cc1)Cc1csc2ccc(Cl)cc12` [Compound 20, 3-{(5-Chloro-benzo[b]thiophen-3-ylmethyl)-[2-(4-fluoro-phenyl)-ethyl]-carbamoyl}-2-hydroxy-acrylic acid]: the inhibition at 70 µM is 97.5%.

On to `O=C(O)/C(O)=C/C(=O)N(Cc1ccc(F)cc1)Cc1csc2ccc(Cl)cc12` [Compound 21, 3-[(5-Chloro-benzo[b]thiophen-3-ylmethyl)7(4-fluoro-benzyl)-carbamoyl]-2-hydroxy-acrylic acid], for which the inhibition at 70 µM came to 98%.

Take `CN(CCc1ccc(F)cc1)C(=O)/C=C(\O)C(=O)O` [Compound 22, 3-{[2-(4-Fluoro-phenyl)-ethyl]-methyl-carbamoyl}-2-hydroxy-acrylic acid]: the inhibition at 70 µM was determined as 75%.

Consider `CC(c1ccccc1)N(Cc1ccc(F)cc1)C(=O)/C=C(\O)C(=O)O` (stereo not drawn) [Compound 23, 3-[(4-Fluoro-benzyl)-(1-phenyl-ethyl)-carbamoyl]-2-hydroxy-acrylic acid], for which the inhibition at 70 µM is 55%.

Regarding `O=C(O)/C(O)=C/C(=O)N(Cc1ccc(F)cc1)Cc1ccc(Cl)cc1` [Compound 24, 3-[(4-Chloro-benzyl)-(4-fluoro-benzyl)-carbamoyl]-2-hydroxy-acrylic acid], the inhibition at 70 µM is 90%.

Regarding `O=C(O)/C(O)=C/C(=O)N(Cc1ccc(F)cc1)Cc1ccc(F)cc1F` [Compound 25, 3-[(2,4-Difluoro-benzyl)-(4-fluoro-benzyl)-carbamoyl]-2-hydroxy-acrylic acid], the inhibition at 70 µM was determined as 96.5%.

Consider `O=C(O)/C(O)=C/C(=O)N(Cc1ccc(F)cc1)Cc1ccc(F)c(F)c1` [Compound 26, 3-[(3,4-Difluoro-benzyl)-(4-fluoro-benzyl)-carbamoyl]-2-hydroxy-acrylic acid], for which the inhibition at 70 µM is 97%.

On to `CC(C)(C)N(Cc1ccc(F)cc1)C(=O)/C=C(\O)C(=O)O` [Compound 27, 3-[tert-Butyl-(4-fluoro-benzyl)-carbamoyl]-2-hydroxy-acrylic acid], for which the inhibition at 70 µM is 33.5%.

For the compound `O=C(O)/C(O)=C/C(=O)N(Cc1ccc(F)cc1)Cc1cccc(Cl)c1` [Compound 28, 3-[(3-Chloro-benzyl)-(4-fluoro-benzyl)-carbamoyl]-2-hydroxy-acrylic acid], the inhibition at 70 µM came out at 96.5%.

On to `CC(C)N(Cc1ccc(F)cc1)C(=O)/C=C(\O)C(=O)O` [Compound 29, 3-[(4-Fluoro-benzyl)-isopropyl-carbamoyl]-2-hydroxy-acrylic acid], for which the inhibition at 70 µM was 38%.

As to `Cc1ccc(CN(C)C(=O)/C=C(\O)C(=O)O)cc1` [Compound 30, 2-Hydroxy-3-[methyl-(4-methyl-benzyl)-carbamoyl]-acrylic acid], the inhibition at 70 µM came out at 84%.

For the compound `COc1ccc(CN(C)C(=O)/C=C(\O)C(=O)O)cc1` [Compound 31, 2-Hydroxy-3-[(4-methoxy-benzyl)-methyl-carbamoyl]-acrylic acid], the inhibition at 70 µM is 82%.

Consider `CCN(Cc1ccc(F)cc1)C(=O)/C=C(\O)C(=O)O` [Compound 32, 3-[Ethyl-(4-fluoro-benzyl)-carbamoyl]-2-hydroxy-acrylic acid], for which the inhibition at 70 µM amounted to 93%.

Turning to `COc1cccc(CN(C)C(=O)/C=C(\O)C(=O)O)c1` [Compound 33, 2-Hydroxy-3-[(3-methoxy-benzyl)-methyl-carbamoyl]-acrylic acid], the inhibition at 70 µM was 90%.

For the compound `CN(Cc1cccc(-c2ccccc2)c1)C(=O)/C=C(\O)C(=O)O` [Compound 34, 3-(Biphenyl-3-ylmethyl-methyl-carbamoyl)-2-hydroxy-acrylic acid], the inhibition at 70 µM amounted to 85%.

Take `COc1ccc(CN(Cc2ccc(F)cc2)C(=O)/C=C(\O)C(=O)O)c(OC)c1` [Compound 35, 3-[(2,4-Dimethoxy-benzyl)-(4-fluoro-benzyl)-carbamoyl]-2-hydroxy-acrylic acid]: the inhibition at 70 µM worked out at 95.5%.

Regarding `CN(Cc1ccc(OCc2ccccc2)cc1)C(=O)/C=C(\O)C(=O)O` [Compound 36, 3-[(4-Benzyloxy-benzyl)-methyl-carbamoyl]-2-hydroxy-acrylic acid], the inhibition at 70 µM stood at 30%.

Consider `CN(Cc1cccc(C(F)(F)F)c1)C(=O)/C=C(\O)C(=O)O` [Compound 37, 2-Hydroxy-3-[methyl-(3-trifluoromethyl-benzyl)-carbamoyl]-acrylic acid], for which the inhibition at 70 µM came out at 82.5%.

Consider `CN(Cc1ccccc1F)C(=O)/C=C(\O)C(=O)O` [Compound 38, 3-[(2-Fluoro-benzyl)-methyl-carbamoyl]-2-hydroxy-acrylic acid], for which the inhibition at 70 µM came out at 70%.

As for `CN(Cc1ccccc1-c1ccccc1)C(=O)/C=C(\O)C(=O)O` [Compound 39, 3-(Biphenyl-2-ylmethyl-methyl-carbamoyl)-2-hydroxy-acrylic acid], the inhibition at 70 µM was 85%.

On to `CN(Cc1cccc(F)c1)C(=O)/C=C(\O)C(=O)O` [Compound 40, 3-[(3-Fluoro-benzyl)-methyl-carbamoyl]-2-hydroxy-acrylic acid], for which the inhibition at 70 µM came to 90%.

For `CN(Cc1ccc(F)c2ccccc12)C(=O)/C=C(\O)C(=O)O` [Compound 41, 3-[(4-Fluoro-naphthalen-1-ylmethyl)-methyl-carbamoyl]-2-hydroxy-acrylic acid], the inhibition at 70 µM is 95%.

Take `COCCN(Cc1ccc(F)cc1)C(=O)/C=C(\O)C(=O)O` [Compound 42, 3-[(4-Fluoro-benzyl)-(2-methoxy-ethyl)-carbamoyl]-2-hydroxy-acrylic acid]: the inhibition at 70 µM is 91%.

As for `O=C(O)/C(O)=C/C(=O)N(CCCc1ccccc1)Cc1ccc(F)cc1` [Compound 43, 3-[(4-Fluoro-benzyl)-(3-phenyl-propyl)-carbamoyl]-2-hydroxy-acrylic acid], the inhibition at 70 µM turned out to be 93.5%.

`CN(C(=O)/C=C(\O)C(=O)O)C(c1ccc(F)cc1)c1cccnc1` (stereo not drawn) [Compound 77, 3-{[(4-Fluoro-phenyl)-pyridin-3-yl-methyl]-methyl-carbamoyl}-2-hydroxy-acrylic acid]: the inhibition at 70 µM worked out at 60%.

With `CN(Cc1ccccc1OCc1ccc(F)cc1)C(=O)/C=C(\O)C(=O)O` [Compound 82, 3-{[2-(4-Fluoro-benzyloxy)-benzyl]-methyl-carbamoyl}-2-hydroxy-acrylic acid], the inhibition at 70 µM came to 80%.

The inhibition is the drop in the measured response relative to a control, in per cent.
